The values that follow come from patent publication US20100273203A1 (priority 2009, published 2010).

Read-outs that look alike come from different tables or passages of the source.

A short description of data set [1]: LC-MS/MS urinary metabolic profile of patients receiving warfarin. Particulars: for % R / % S (proportion in (S)-enantiomeric form) / % conjugated (proportion glucuronidated) / urinary concentration: urine; for urinary concentration: free and conjugated. The source says:
All chemicals used in this study were of at least reagent grade. Unless otherwise specified, all chemicals and reagents were purchased from either Sigma-Aldrich (St. Louis, Mo.) or Thermo Fisher Scientific (Waltham, Mass.). […] Ethyl alcohol (100%) was purchased from AAPER (Shelbyville, Ky.). Re-combinant CYP2C9*1, CYP3A4, CYP1A2, and CYP2C19 were expressed in baculovirus-infected insect cells and purchased from BD Biosciences (San Jose, Calif.). Commercially available urine specimens from three females (F84, F85, and F87) were provided by the Emergency Response and Air Toxicants Branch, Division of Laboratory Science National Center for Environmental Health Centers for Disease Control and Prevention (DeKalb County, Ga.). Patient studies were conducted under IRB-approved protocols, and all patients signed informed consent documentation.
This analytical phase was accomplished by reverse-phase HPLC using a 4.6 mm×150 mm C18 Zorbax Eclipse 5 μm XDB-C18 column provided by Agilent (Santa Clara, Calif.). The operating temperature was 40° C., and the sample injection volume was 5.0 μL. HPLC mobile phases consisted H2O (0.1% acetic acid v/v) (A) and methanol (0.1% acetic acid v/v) (B). The flow rate was 1 mL/min. […] The total run time per sample was 10 min. Specific MS/MS experimental conditions used in this study are noted in Table 1.
To determine the relative abundance of the (R)-and (S)-enantiomers of each metabolite, a 4.6 mm×25 cm Chirobiotic V5 μm column supplied by Supelco (Bellefonte, Pa.) was incorporated during the second analytical phase. Mobile phases consisted of H2O (0.1% acetic acid v/v) (A) and acetonitrile (0.1% acetic acid v/v) (B) with a flow rate of 800 μL/min. Enantiomeric separations were accomplished under isocratic conditions (80% A and 20% B). The sample injection volume was 15.0 μL. Enantiomeric MS/MS analyses were performed in negative ion mode by electrospray ionization (ESI) using a Turbo IonSpray source. A total run time of 20 min was required for adequate resolution. Specific MS/MS experimental conditions used in this study are noted in the Table 2.
Each response was normalized to that of the internal standard, 7-hydroxycoumarin (10 μM). […] Measurements of these three metabolites were calculated by taking the difference of the amount measured in the first analytical phase, which contained both (R)-and (S) isomers from the amount of the (S)-isomer measured in the second analytical phase (eq 3). Glucuronidated metabolites were measured by incubating 250 μL of urine with 2000 units of GUS in 100 mM sodium acetate buffer, pH 5.0. The final volume for each of these reactions was 1 mL. Control reactions omitting GUS were included with each sample set. Reactions were incubated overnight at 37° C., after which they were stored at −80° C. Immediately before analysis, both samples were diluted with an equal volume of ethanol containing 7-hydroxycoumarin (10 μM final concentration). The difference between GUS-treated samples and controls represented the amount of glucuronidated metabolites present.

The target of data set [2] is T1, CYP2C9 (Homo sapiens, UniProt P11712). Particulars: read-out: reported Km; cited from earlier work.
Data set [3] addresses T2, CYP1A2 (Homo sapiens, UniProt P05177).
T2 sequence (P05177 1-516): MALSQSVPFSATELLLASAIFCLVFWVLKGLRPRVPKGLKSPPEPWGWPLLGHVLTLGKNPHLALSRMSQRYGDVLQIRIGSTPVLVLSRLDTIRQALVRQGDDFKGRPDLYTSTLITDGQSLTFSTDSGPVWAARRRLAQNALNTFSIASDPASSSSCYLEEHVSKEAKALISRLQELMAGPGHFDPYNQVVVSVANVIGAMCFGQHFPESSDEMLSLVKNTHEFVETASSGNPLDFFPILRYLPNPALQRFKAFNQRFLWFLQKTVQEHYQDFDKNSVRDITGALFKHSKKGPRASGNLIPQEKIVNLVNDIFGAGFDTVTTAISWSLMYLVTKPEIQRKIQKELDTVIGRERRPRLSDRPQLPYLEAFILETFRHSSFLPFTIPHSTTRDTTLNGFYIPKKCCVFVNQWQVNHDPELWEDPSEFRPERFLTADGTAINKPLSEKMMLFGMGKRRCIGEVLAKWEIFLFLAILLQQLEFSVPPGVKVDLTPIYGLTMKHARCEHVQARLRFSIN
Description: biochemical.

Another data set deals with UGT1A1 (Homo sapiens, UniProt P22309). As to conditions: glucuronidation; racemic OHWars. The source says:
(§1) The characterization of hepatic and extrahepatic glucuronidation may be made based on glucuronidation studies with 100 commercially available HLM and 100 intestinal microsomal preparations available in our laboratory. […] Both racemic mixtures and separated R and S enantiomers may be assayed. […] Activities of extrahepatic (UGT1A8 and UGT1A10) and hepatic (UGT1A1, UGT1A3, and UGT1A9) isoforms may be compared to that of their respective microsomal preparations, and assign the contribution of specific UGTs to product formation by the human samples.

A further data set addresses UGT1A10 (Homo sapiens, UniProt Q9HAW8). As to conditions: glucuronidation; racemic OHWars.
Source text: as §1

The target in data set [4] is T1, CYP2C9. Particulars: read-out: IC50 toward recombinant CYP2C9 activity; P450-Glo, 50 μM Luciferin H; racemic compounds. The protocol:
Hydroxywarfarins were screened for inhibitory potential toward recombinant CYP2C9 using the Promega (Madison, Wis.) CY2C9 P450-Glo™ Assay using the manufacturer's protocol. These IC50 studies were analyzed on a PerkinElmer Victor^3V™ 1420 Multilabel Counter. Recombinant CYP2C9, 50 nM, was incubated with 50 μM Luciferin H, and six concentrations of each hydroxywarfarin from approximately 10 nM to 4 mM final concentration, as optimized for each compound. The appropriate volume of hydroxywarfarin stocks in 100% ethanol were added to each well prior to addition of the substrate and enzyme, and the ethanol was allowed to evaporate at room temperature to minimize solvent effects on CYP2C9 activity. A final DMSO concentration of 1% was present in the reactions due to the P450-Glo Luciferin H. The reaction was initiated upon addition of an NADPH regenerating solution (BD Biosciences) and quenched with a luciferase quench (Promega) at 30 min.

Data set [5] addresses CYP2C9 present in the human liver microsomes (Homo sapiens, UniProt P11712). Particulars: for Ki / Mechanism of inhibition: S-warfarin metabolism. The protocol:
(§2) For each hydroxywarfarin, at least 4 independent experimental replicates were performed.
(§3) MS/MS experimental conditions was used as described previously (6).
(§4) The most probable inhibition mechanism for recombinant CYP2C9 and human liver microsome reactions was identified using DynaFit ver. 3.28 (Biokin, Ltd) (20). Data from each set of hydroxywarfarin experiments were fit to traditional reversible inhibition mechanisms (competitive, uncompetitive, noncompetitive, or mixed). The respective kinetic parameters (Ki and Ki′) were set as variables, while the kinetic parameters (Vmax and Km) were constants based on values obtained from uninhibited reactions. The most probable mechanism was then identified using the Akaike Information Criterion (AICc) for model discrimination (21).

Data set [6] addresses T3, CYP2C9*1 (Homo sapiens, UniProt P11712). Particulars: for Ki / Mechanism of inhibition: S-warfarin metabolism. The protocol:
as §2, §3, §4

Data set [7] concerns the target T2, CYP1A2. As to conditions: read-out: IC50 for CYP marker reaction; P450-Glo marker reaction.
In data set [8] the target is T3, CYP2C9*1. As to conditions: read-out: IC50 for CYP marker reaction; P450-Glo marker reaction.
Data set [9] has as its target T4, CYP3A4 (Homo sapiens, UniProt P08684). As to conditions: read-out: IC50 for CYP marker reaction; P450-Glo marker reaction.
The subject of the next data set is plasma proteins. As to conditions: cited from earlier work.
A short description of data set [10]: Estimated unbound levels in plasma of long-term warfarin therapy patients. Particulars: estimated from literature data.
The next data set concerns the target UGT1A8 (Homo sapiens, UniProt Q9HAW9). Particulars: glucuronidation; racemic OHWars.
Source text: as §1

The next data set deals with UGT1A9 (Homo sapiens, UniProt O60656). As to conditions: glucuronidation; racemic OHWars.
Source text: as §1

Data set [11] concerns the target T1, CYP2C9. Particulars: not metabolized by CYP2C9; cited from earlier work.
Data set [12] has as its target T4, CYP3A4. Description: Steady-state metabolism of R- and S-warfarin by recombinant CYP3A4.
Description: (§5) Reactions were initiated upon addition of an NADPH regenerating system [2 μU μL-1 glucose 6-phosphate dehydrogenase, 10 mM glucose 6-phosphate, 2 mM MgCl2, 1 mM NADP^+]. […] The quenched reactions were centrifuged and the resulting supernatant containing substrate and products resolved and quantified by UPLC-MS/MS. Each experiment was performed in at least 4 independent experimental replicates.
(§6) The flow rate was constant at 250 μL/min. […] Electrospray conditions were as follows: spray voltage of 4500 V, sheath gas pressure 45, auxiliary gas pressure 20, and collision energy of 15-15 eV (compound specific).
(§7) Final metabolite concentrations were calculated from the ratio of metabolite area to internal standard area in the sample and compared to calibration curves as determined from the UPLC-MS/MS method. All compounds were quantified relative to authentic standards. The resulting kinetic data were analyzed with GraphPad Prism 5® software. Non-linear regression analysis was used to fit steady-state data to the Michaelis-Menten equation to determine the Vmax and Km parameters.
A further data set concerns the target CYP3A7 (Homo sapiens, UniProt P24462). Description: Steady-state metabolism of R- and S-warfarin by recombinant CYP3A7.
Setting [13] is: based on S-6-hydroxywarfarin formation.
The mark [14] stands for this setting: 7-hydroxywarfarin formation as marker.
The mark [15] stands for this setting: 10-hydroxywarfarin formation, 37° C, pH 7.4.

T1 sequence (P11712 whole entry): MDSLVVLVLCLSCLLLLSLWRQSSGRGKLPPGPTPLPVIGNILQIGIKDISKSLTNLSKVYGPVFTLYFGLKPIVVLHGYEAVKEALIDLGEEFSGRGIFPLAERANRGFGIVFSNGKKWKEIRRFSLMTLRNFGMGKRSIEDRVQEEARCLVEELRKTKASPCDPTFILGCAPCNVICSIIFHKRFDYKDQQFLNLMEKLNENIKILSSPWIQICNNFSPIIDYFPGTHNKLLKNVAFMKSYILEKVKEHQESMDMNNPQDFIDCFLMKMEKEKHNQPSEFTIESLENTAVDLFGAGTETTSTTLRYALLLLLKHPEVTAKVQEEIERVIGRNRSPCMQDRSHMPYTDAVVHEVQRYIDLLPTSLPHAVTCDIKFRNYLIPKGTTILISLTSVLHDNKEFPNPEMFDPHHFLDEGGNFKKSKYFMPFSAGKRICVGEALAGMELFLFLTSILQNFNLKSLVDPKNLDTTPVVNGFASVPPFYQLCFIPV
Sequence of CYP2C9 present in the human liver microsomes (P11712 whole entry): as above
Sequence of UGT1A10 (Q9HAW8 26-530): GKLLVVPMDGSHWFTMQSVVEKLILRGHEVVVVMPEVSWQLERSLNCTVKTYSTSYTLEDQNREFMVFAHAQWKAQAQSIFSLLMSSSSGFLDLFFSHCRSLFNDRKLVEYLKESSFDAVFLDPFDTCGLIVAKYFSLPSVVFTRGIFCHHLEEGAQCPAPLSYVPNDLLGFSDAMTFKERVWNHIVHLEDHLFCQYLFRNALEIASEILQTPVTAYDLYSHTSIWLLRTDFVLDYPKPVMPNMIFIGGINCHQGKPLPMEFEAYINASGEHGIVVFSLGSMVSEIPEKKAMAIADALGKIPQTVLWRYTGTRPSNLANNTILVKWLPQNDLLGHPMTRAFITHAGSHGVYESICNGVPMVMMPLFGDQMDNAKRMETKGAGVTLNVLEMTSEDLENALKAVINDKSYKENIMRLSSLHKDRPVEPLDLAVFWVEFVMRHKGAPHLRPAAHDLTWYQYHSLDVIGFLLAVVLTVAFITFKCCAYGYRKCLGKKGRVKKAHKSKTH
T4 sequence (P08684 whole entry): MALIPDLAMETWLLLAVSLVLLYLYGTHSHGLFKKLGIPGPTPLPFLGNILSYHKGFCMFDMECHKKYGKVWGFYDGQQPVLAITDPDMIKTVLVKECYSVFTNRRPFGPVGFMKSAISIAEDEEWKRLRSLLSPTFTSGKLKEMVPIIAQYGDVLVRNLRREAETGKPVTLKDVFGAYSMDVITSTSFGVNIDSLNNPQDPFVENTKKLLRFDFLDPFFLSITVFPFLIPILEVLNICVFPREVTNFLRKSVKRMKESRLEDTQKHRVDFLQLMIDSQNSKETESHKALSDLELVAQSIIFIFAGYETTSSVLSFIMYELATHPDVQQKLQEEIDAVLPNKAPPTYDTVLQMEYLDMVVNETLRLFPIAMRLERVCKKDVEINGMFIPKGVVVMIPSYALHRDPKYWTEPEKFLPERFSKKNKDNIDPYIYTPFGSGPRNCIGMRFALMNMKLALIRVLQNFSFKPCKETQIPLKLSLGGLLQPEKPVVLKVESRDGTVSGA
Sequence of CYP3A7 (P24462 whole entry): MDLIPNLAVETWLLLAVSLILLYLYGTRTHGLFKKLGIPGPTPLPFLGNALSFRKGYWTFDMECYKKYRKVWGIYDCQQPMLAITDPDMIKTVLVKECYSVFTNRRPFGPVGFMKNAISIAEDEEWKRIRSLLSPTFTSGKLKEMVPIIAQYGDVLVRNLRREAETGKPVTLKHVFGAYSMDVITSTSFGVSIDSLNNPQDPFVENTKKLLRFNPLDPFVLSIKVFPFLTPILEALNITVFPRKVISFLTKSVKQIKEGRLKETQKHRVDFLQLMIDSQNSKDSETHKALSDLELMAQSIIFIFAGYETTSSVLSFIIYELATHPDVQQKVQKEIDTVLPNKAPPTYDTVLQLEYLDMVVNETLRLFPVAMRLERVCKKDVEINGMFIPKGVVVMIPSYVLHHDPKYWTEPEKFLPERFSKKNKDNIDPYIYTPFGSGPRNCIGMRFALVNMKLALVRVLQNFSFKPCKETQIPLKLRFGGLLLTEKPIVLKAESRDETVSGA
Sequence of UGT1A1 (P22309 26-533): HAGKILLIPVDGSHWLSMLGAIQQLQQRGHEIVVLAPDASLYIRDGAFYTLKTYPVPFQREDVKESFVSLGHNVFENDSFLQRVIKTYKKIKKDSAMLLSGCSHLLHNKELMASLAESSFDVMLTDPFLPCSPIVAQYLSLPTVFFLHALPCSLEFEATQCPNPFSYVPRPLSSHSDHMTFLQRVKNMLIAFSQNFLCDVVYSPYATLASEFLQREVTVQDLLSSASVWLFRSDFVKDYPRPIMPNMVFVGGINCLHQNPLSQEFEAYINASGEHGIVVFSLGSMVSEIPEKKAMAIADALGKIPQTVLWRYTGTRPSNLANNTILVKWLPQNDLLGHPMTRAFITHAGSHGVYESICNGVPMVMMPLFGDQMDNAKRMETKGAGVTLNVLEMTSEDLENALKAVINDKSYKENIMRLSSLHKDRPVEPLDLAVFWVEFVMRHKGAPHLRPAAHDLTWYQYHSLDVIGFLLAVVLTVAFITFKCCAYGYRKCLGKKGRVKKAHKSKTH
Sequence of UGT1A9 (O60656 26-530): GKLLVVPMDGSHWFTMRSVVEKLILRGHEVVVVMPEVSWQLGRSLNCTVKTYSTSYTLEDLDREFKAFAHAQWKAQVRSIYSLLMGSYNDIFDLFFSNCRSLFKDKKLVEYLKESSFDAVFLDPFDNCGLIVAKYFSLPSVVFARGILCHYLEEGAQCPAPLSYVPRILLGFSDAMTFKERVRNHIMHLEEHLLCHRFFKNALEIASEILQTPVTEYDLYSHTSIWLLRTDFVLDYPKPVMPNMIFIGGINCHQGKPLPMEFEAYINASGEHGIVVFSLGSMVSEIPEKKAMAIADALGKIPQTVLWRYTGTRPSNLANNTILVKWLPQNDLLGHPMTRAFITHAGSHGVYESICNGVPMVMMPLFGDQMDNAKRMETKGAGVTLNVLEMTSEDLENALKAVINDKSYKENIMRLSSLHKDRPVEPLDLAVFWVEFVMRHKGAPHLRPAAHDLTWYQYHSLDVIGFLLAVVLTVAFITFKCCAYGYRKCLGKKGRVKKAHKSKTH
Sequence of UGT1A8 (Q9HAW9 26-530): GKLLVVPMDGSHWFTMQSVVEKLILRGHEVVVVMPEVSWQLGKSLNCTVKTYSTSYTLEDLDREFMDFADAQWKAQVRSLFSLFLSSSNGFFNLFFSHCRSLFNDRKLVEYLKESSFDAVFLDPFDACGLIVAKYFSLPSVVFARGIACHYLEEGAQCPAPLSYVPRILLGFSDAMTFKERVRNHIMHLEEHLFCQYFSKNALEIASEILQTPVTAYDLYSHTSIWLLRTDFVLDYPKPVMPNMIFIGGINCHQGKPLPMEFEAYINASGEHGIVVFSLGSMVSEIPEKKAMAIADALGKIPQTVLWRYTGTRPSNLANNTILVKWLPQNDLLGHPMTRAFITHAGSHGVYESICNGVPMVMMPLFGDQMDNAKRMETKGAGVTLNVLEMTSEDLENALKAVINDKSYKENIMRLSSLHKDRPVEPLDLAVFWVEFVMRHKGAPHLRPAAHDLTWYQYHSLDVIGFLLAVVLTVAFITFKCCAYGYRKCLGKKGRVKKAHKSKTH
Description for CYP3A7: as §5, §6, §7

Consider `CC(=O)CC(c1ccccc1)c1c(O)c2ccccc2oc1=O` (racemic) [WAR, warfarin], for which, in [1] (female, human, in vivo), the “individual concentrations in urine” value is 10 to 200 nM. For the same compound, on CYP2C9 [2], the Michaelis-Menten constant (Km) was 2600 nM. On CYP1A2 [3], this compound yielded an IC50 of 740 µM.
In the case of `CC(=O)CC(c1ccccc1)c1c(O)c2ccc(O)cc2oc1=O` (centres unmarked) [7-OH-WAR, 7-hydroxywarfarin], the “% R” value turned out to be 80% in data set [1] (patient F84), 38% in data set [1] (patient F85) and 52% in data set [1] (patient F87). Also, the “% S (proportion in (S)-enantiomeric form)” value amounted to 20% in data set [1] (patient F84), 62% in [1] (patient F85) and 48% in [1] (patient F87). The “% conjugated (proportion glucuronidated)” value in data set [1] (patient F84) is given as 69%; in data set [1] (patient F85), 28%; in [1] (patient F87), 14%. Also, the results for the urinary concentration in data set [1] (patient F84), in data set [1] (patient F85) and in [1] (patient F87) were 1964 nM, 2404 nM and 724 nM, respectively. The Km on UGT1A1 stood at 58.8 ± 24 µM; at UGT1A10, 220 ± 40 µM. For the same compound, the results for the Vmax on UGT1A1 and on UGT1A10 were 1.3 ± 0.1 nmol/mg protein/min and 1.0 ± 0.1 nmol/mg protein/min, respectively. Besides, the IC50 at CYP2C9 [4] was 35 µM; on CYP1A2 [7], 400 µM; on CYP2C9*1 [8], 45.7 µM; at CYP3A4 [9], above 500 µM. The Ki in [5] (setting [13]) amounted to 64 µM; on CYP2C9*1 [6] (setting [13]), 10 µM. Besides, the Mechanism of inhibition entry (in data set [5] (setting [13]); at CYP2C9*1 [6] (setting [13])) was “Competitive” each time. Further, the “Ki, fold higher than the marker Km” value is 8.5 fold in data set [5] (human liver microsomes) and 4.5 fold at CYP2C9*1 [6] (recombinant CYP2C9). Besides, the “plasma protein binding affinity relative to warfarin” value with plasma proteins is “three- to four-fold lower affinity”. Also, the “mean unbound concentration in human plasma (estimated)” value in data set [10] is 6.2 ng/mL.
In the case of `CC(=O)CC(c1ccccc1)c1c(O)c2cccc(O)c2oc1=O` (centres unmarked) [8-OH-WAR, 8-hydroxywarfarin], the results for the “% R” value in data set [1] (patient F84), in data set [1] (patient F85) and in [1] (patient F87) were 100%, 98% and 69%, respectively. The “% S (proportion in (S)-enantiomeric form)” value in data set [1] (patient F84) stood at 0%; in data set [1] (patient F85), 2%; in data set [1] (patient F87), 31%. Besides, the “% conjugated (proportion glucuronidated)” value in data set [1] (patient F84) is recorded as 31%; in [1] (patient F85) it was 53%; in [1] (patient F87), 7%. For the same compound, the results for the urinary concentration in [1] (patient F84), in [1] (patient F85) and in data set [1] (patient F87) were 111 nM, 109 nM and 231 nM, respectively. In addition, the Km was 383 ± 81 µM at UGT1A10, 206 ± 70 µM on UGT1A8 and 107 ± 36 µM on UGT1A9. For the same compound, the Vmax on UGT1A10 is given as 25 ± 2 nmol/mg protein/min; on UGT1A8, 1.5 ± 0.1 nmol/mg protein/min; on UGT1A9, 1.7 ± 0.1 nmol/mg protein/min. Also, the IC50 at CYP2C9 [4] was 16 µM; on CYP1A2 [7] it was 830 µM; at CYP2C9*1 [8], 17.2 µM; at CYP3A4 [9], 240 µM. The inhibitory constant (Ki) was determined as 13 µM in [5] (setting [14]); 21 µM on CYP2C9*1 [6] (setting [14]); 103 µM on CYP2C9*1 [6] (7-hydroxywarfarin formation as marker, mixed inhibition). The Mechanism of inhibition result was “Competitive” in data set [5] (setting [14]) and “Mixed” at CYP2C9*1 [6] (setting [14]). Also, the “plasma protein binding affinity relative to warfarin” value in the data set on plasma proteins is “three- to four-fold lower affinity”.
As to `CC(=O)C[C@H](c1ccccc1)c1c(O)c2ccccc2oc1=O` [R-warfarin, (R) warfarin], the Ki at CYP2C9 [11] is around 8 µM. In addition, the Km on CYP3A4 [12] (4′-hydroxywarfarin formation) came to 36 µM; on CYP3A4 [12] (10-hydroxywarfarin formation) it was 16 µM; at CYP3A7 (4′-hydroxywarfarin formation) it was 1390 µM; at CYP3A7 (10-hydroxywarfarin formation), 54 µM. For the same compound, the Vmax is recorded as 98 pmol product/min/nmol P450 on CYP3A4 [12] (4′-hydroxywarfarin formation), 1055 pmol product/min/nmol P450 on CYP3A4 [12] (setting [15]), 260 pmol product/min/nmol P450 at CYP3A7 (4′-hydroxywarfarin formation) and 116 pmol product/min/nmol P450 on CYP3A7 (setting [15]).

As usually defined, the Km is the concentration of substrate that gives half-maximal velocity. For orientation: IC50 means the midpoint of a concentration-inhibition curve. In general, Ki refers to a measure of affinity in units of concentration, obtained from inhibition or displacement.
